Test results from PubChem BioAssay (NCI).
Where “and” joins values, the source holds several entries; their conditions need not be identical. Identical values can stand only once.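 In this assay, cells in 96-well plates receive the compound at five concentrations for 48 hours. Endpoints are linearly interpolated between the surrounding concentrations. Here, GI50 denotes the concentration required for 50% inhibition of growth. TGI marks complete inhibition of growth.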

Key:
Test in all cases: DTP human tumour cell line panel, 48 h
SNB-75 CNS = tested on: SNB-75 CNS
HL-60(TB) leukemia = tested on: HL-60(TB) leukemia
A498 renal = tested on: A498 renal
MALME-3M melanoma = tested on: MALME-3M melanoma
M19-MEL melanoma = tested on: M19-MEL melanoma
ACHN renal = tested on: ACHN renal
DMS 114 small cell lung = tested on: DMS 114 small cell lung
RXF-631 renal = tested on: RXF-631 renal
DMS 273 small cell lung = tested on: DMS 273 small cell lung
SK-MEL-2 melanoma = tested on: SK-MEL-2 melanoma
COLO 205 colon = tested on: COLO 205 colon
A549 NSCLC = tested on: A549 NSCLC
OVCAR-4 ovarian = tested on: OVCAR-4 ovarian
HOP-62 NSCLC = tested on: HOP-62 NSCLC
KM20L2 colon = tested on: KM20L2 colon
TK-10 renal = tested on: TK-10 renal
M14 melanoma = tested on: M14 melanoma
RXF 393 renal = tested on: RXF 393 renal
XF 498 CNS = tested on: XF 498 CNS
KM12 colon = tested on: KM12 colon
NCI-H23 lung = tested on: NCI-H23 lung
SF-295 CNS = tested on: SF-295 CNS
SN12C renal = tested on: SN12C renal
SR leukemia = tested on: SR leukemia
CAKI-1 renal = tested on: CAKI-1 renal
SK-OV-3 ovarian = tested on: SK-OV-3 ovarian
SF-268 CNS = tested on: SF-268 CNS
OVCAR-8 ovarian = tested on: OVCAR-8 ovarian
HCC-2998 colon = tested on: HCC-2998 colon
K-562 leukemia = tested on: K-562 leukemia
U251 CNS = tested on: U251 CNS
UO-31 renal = tested on: UO-31 renal
EKVX NSCLC = tested on: EKVX NSCLC
HOP-92 NSCLC = tested on: HOP-92 NSCLC
UACC-257 melanoma = tested on: UACC-257 melanoma
HCT-116 colon = tested on: HCT-116 colon
MOLT-4 leukemia = tested on: MOLT-4 leukemia
HCT-15 colon = tested on: HCT-15 colon
NCI-H522 lung = tested on: NCI-H522 lung
NCI-H226 lung = tested on: NCI-H226 lung
LOX IMVI melanoma = tested on: LOX IMVI melanoma
NCI-H460 lung = tested on: NCI-H460 lung
SK-MEL-5 melanoma = tested on: SK-MEL-5 melanoma
LXFL 529 NSCLC = tested on: LXFL 529 NSCLC
786-0 renal = tested on: 786-0 renal
OVCAR-5 ovarian = tested on: OVCAR-5 ovarian
SW-620 colon = tested on: SW-620 colon
SF-539 CNS = tested on: SF-539 CNS
SK-MEL-28 melanoma = tested on: SK-MEL-28 melanoma
SNB-19 CNS = tested on: SNB-19 CNS
RPMI-8226 leukemia = tested on: RPMI-8226 leukemia
HT29 colon = tested on: HT29 colon
IGROV1 ovarian = tested on: IGROV1 ovarian
SNB-78 CNS = tested on: SNB-78 CNS
UACC-62 melanoma = tested on: UACC-62 melanoma
CCRF-CEM leukemia = tested on: CCRF-CEM leukemia
DLD-1 colon = tested on: DLD-1 colon

O=[N+]([O-])c1ccc(C(Cl)C(Cl)c2ccc(C(Cl)C(Cl)c3ccc([N+](=O)[O-])cc3[N+](=O)[O-])cc2)c([N+](=O)[O-])c1 (stereo not given)
GI50 (SNB-75 CNS): 0.231 µM
GI50 (HL-60(TB) leukemia): 0.132 µM
GI50 (A498 renal): 1.05 µM
TGI (A498 renal): 11.1 µM and 2.96 µM
GI50 (MALME-3M melanoma): 0.243 µM
TGI (MALME-3M melanoma): 2.33 µM and 0.57 µM
GI50 (M19-MEL melanoma): 0.256 µM
TGI (M19-MEL melanoma): 3.15 µM and 0.749 µM
GI50 (ACHN renal): 0.268 µM
TGI (ACHN renal): 6.04 µM and 0.85 µM
TGI (DMS 114 small cell lung): 3.59 µM
GI50 (RXF-631 renal): 0.336 µM
TGI (RXF-631 renal): 8.92 µM and 1.26 µM
TGI (DMS 273 small cell lung): 6.71 µM
GI50 (SK-MEL-2 melanoma): 0.231 µM
TGI (SK-MEL-2 melanoma): 3.27 µM and 0.472 µM
TGI (COLO 205 colon): 1.99 µM
GI50 (A549 NSCLC): 0.362 µM
TGI (A549 NSCLC): 5.04 µM and 4.46 µM
GI50 (OVCAR-4 ovarian): 0.326 µM
TGI (OVCAR-4 ovarian): 8.21 µM and 3.52 µM
TGI (HOP-62 NSCLC): 6.2 µM
TGI (KM20L2 colon): 2.28 µM
GI50 (TK-10 renal): 0.536 µM
TGI (TK-10 renal): 14.5 µM and 2.5 µM
GI50 (M14 melanoma): 0.243 µM
TGI (M14 melanoma): 1.77 µM and 0.681 µM
GI50 (RXF 393 renal): 0.31 µM
TGI (RXF 393 renal): 2.33 µM and 1.34 µM
TGI (XF 498 CNS): 0.389 µM
TGI (KM12 colon): 0.812 µM
GI50 (NCI-H23 lung): 0.216 µM
TGI (NCI-H23 lung): 4.69 µM and 0.582 µM
GI50 (SF-295 CNS): 0.602 µM
TGI (SF-295 CNS): 25.8 µM and 5.76 µM
GI50 (SN12C renal): 0.307 µM
TGI (SN12C renal): 5.41 µM and 1.25 µM
TGI (SR leukemia): > 62 µM
GI50 (CAKI-1 renal): 0.35 µM
TGI (CAKI-1 renal): 5.7 µM and 1.93 µM
GI50 (SK-OV-3 ovarian): 6.36 µM
TGI (SK-OV-3 ovarian): > 62 µM and 51.1 µM
GI50 (SF-268 CNS): 0.253 µM
GI50 (OVCAR-8 ovarian): 0.282 µM
TGI (OVCAR-8 ovarian): 2.13 µM and 0.918 µM
GI50 (HCC-2998 colon): 0.473 µM
TGI (HCC-2998 colon): 6.87 µM and 1.59 µM
TGI (K-562 leukemia): 0.438 µM
TGI (U251 CNS): 3.03 µM
GI50 (UO-31 renal): 0.244 µM
GI50 (EKVX NSCLC): 0.559 µM
TGI (EKVX NSCLC): 6.18 µM and 2.49 µM
TGI (HOP-92 NSCLC): 3.28 µM
TGI (UACC-257 melanoma): 5.77 µM
TGI (HCT-116 colon): 1.75 µM
TGI (MOLT-4 leukemia): > 62 µM
GI50 (HCT-15 colon): 0.214 µM
TGI (HCT-15 colon): 3.3 µM and 0.55 µM
GI50 (NCI-H522 lung): 0.183 µM
TGI (NCI-H522 lung): 2.36 µM and 0.447 µM
GI50 (NCI-H226 lung): 0.23 µM
GI50 (LOX IMVI melanoma): 0.403 µM
TGI (LOX IMVI melanoma): 5.96 µM and 1.72 µM
GI50 (NCI-H460 lung): 0.249 µM
TGI (NCI-H460 lung): 2.15 µM and 0.723 µM
GI50 (SK-MEL-5 melanoma): 0.172 µM
TGI (SK-MEL-5 melanoma): 1.86 µM and 0.335 µM
GI50 (LXFL 529 NSCLC): 0.179 µM
TGI (LXFL 529 NSCLC): 1.9 µM and 0.377 µM
GI50 (786-0 renal): 0.321 µM
TGI (786-0 renal): 5.62 µM and 1.09 µM
TGI (OVCAR-5 ovarian): 4.83 µM
TGI (SW-620 colon): 1.69 µM
GI50 (SF-539 CNS): 0.466 µM
TGI (SF-539 CNS): 5.35 µM and 11.6 µM
GI50 (SK-MEL-28 melanoma): 0.389 µM
TGI (SK-MEL-28 melanoma): 12.3 µM and 1.96 µM
TGI (SNB-19 CNS): 18.1 µM
TGI (RPMI-8226 leukemia): 0.509 µM
GI50 (HT29 colon): 0.313 µM
TGI (HT29 colon): 4.57 µM and 1.08 µM
GI50 (IGROV1 ovarian): 0.571 µM
TGI (IGROV1 ovarian): 11.4 µM and 8.68 µM
GI50 (SNB-78 CNS): 0.762 µM
TGI (SNB-78 CNS): > 62 µM and 52.8 µM
GI50 (UACC-62 melanoma): 0.247 µM
TGI (UACC-62 melanoma): 2.37 µM and 0.623 µM
TGI (CCRF-CEM leukemia): 1.02 µM
GI50 (DLD-1 colon): 0.251 µM
TGI (DLD-1 colon): 6.02 µM and 0.748 µM
